Assays:
Assay in all cases: combination Emax (second highest fraction inhibited in the dose matrix, 72 h); higher = more inhibition; extreme values may be limits of the assay
[1] = test system: DU-4475 (Breast Carcinoma)
Summary of the method: (§1)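 Cell lines grown in DMEM/F12 or RPMI with 10% FBS were plated in 1536-well plates and held 24 hours at 37°C, 5% CO2 before 72 hours of exposure to two-drug dose matrices, with DMSO typically at 0.2%. CellTiter-Glo 2.0 luminescence gave viability, which was converted to inhibition. Vehicle wells were set to 0 and blank wells to 1. Combination Emax is the second-highest inhibition in the matrix, and Bliss excess is the observed combination effect minus the expected EA + EB − EA·EB, where EA and EB are the single-agent effects.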

[2] = test system: NCI-H1651 (Lung Adenocarcinoma)
Summary of the method: as §1

EW-16 (Ewing's Sarcoma) = test system: EW-16 (Ewing's Sarcoma)
Summary of the method: as §1

A204 (Rhabdomyosarcoma) = test system: A204 (Rhabdomyosarcoma)
Summary of the method: as §1

[3] = test system: HT55 (Colorectal Carcinoma)
Summary of the method: as §1

[4] = test system: JHH-2 (Hepatocellular Carcinoma)
Summary of the method: as §1

[5] = test system: JVM-2 (B-Cell Non-Hodgkin's Lymphoma)
Summary of the method: as §1

[6] = test system: ESO26 (Esophageal Adenocarcinoma)
Summary of the method: as §1

[7] = test system: A253 (Head and Neck Carcinoma)
Summary of the method: as §1

[8] = test system: DMS-53 (Small Cell Lung Carcinoma)
Summary of the method: as §1

[9] = test system: CAL-27 (Oral Cavity Carcinoma)
Summary of the method: as §1

[10] = test system: MHH-ES-1 (Ewing's Sarcoma)
Summary of the method: as §1

RH-41 (Rhabdomyosarcoma) = test system: RH-41 (Rhabdomyosarcoma)
Summary of the method: as §1

5637 (Bladder Carcinoma) = test system: 5637 (Bladder Carcinoma)
Summary of the method: as §1

[11] = test system: A2780 (Ovarian Carcinoma)
Summary of the method: as §1

[12] = test system: CESS (Acute Myeloid Leukemia)
Summary of the method: as §1

[13] = test system: NCI-H441 (Lung Adenocarcinoma)
Summary of the method: as §1

[14] = test system: LS-411N (Colorectal Carcinoma)
Summary of the method: as §1

[15] = test system: KYSE-220 (Esophageal Squamous Cell Carcinoma)
Summary of the method: as §1

IM-9 (Non-Cancerous) = test system: IM-9 (Non-Cancerous)
Summary of the method: as §1

Row | Compound | combination Emax [1] | combination Emax [2] | combination Emax (EW-16 (Ewing's Sarcoma)) | combination Emax (A204 (Rhabdomyosarcoma)) | combination Emax [3] | combination Emax [4] | combination Emax [5] | combination Emax [6] | combination Emax [7] | combination Emax [8] | combination Emax [9] | combination Emax [10] | combination Emax (RH-41 (Rhabdomyosarcoma)) | combination Emax (5637 (Bladder Carcinoma)) | combination Emax [11] | combination Emax [12] | combination Emax [13] | combination Emax [14] | combination Emax [15] | combination Emax (IM-9 (Non-Cancerous))
1 | CN(C)CCCOc1ccc(-c2ccc3ncc4c(c3c2)n(C2CCOCC2)c(=O)n4C)cn1 [AZD0156] + C=CCn1c(=O)c2cnc(Nc3ccc(N4CCN(C)CC4)cc3)nc2n1-c1cccc(C(C)(C)O)n1 [AZD1775] (first compound max 1 µM, partner max 1 µM) | 0.924 | 0.62 | 0.307 | 0.27 | 0.407 | 0.53 | 0.888 | 0.458 | 0.327 | 0.148 | 0.376 | 0.671 | 0.948 | 0.745 | 0.79 | 0.929 | 0.329 | 0.641 | 0.812 | 0.986
2 | CN(C)CCCOc1ccc(-c2ccc3ncc4c(c3c2)n(C2CCOCC2)c(=O)n4C)cn1 [AZD0156] + CCN(CCO)CCCOc1ccc2c(Nc3cc(CC(=O)Nc4cccc(F)c4)[nH]n3)ncnc2c1 [AZD2811] (first compound max 1 µM, 7x7, partner max 1 µM) | 0.392 | 0.107 | 0.423 | 0.297 | 0.16 | 0.287 | 0.719 | 0.0581 | 0.212 | 0.0911 | 0.546 | 0.55 | 0.235 | 0.609 | 0.609 | 0.25 | 0.112 | 0.137 | 0.142 | 0.944
3 | CN(C)CCCOc1ccc(-c2ccc3ncc4c(c3c2)n(C2CCOCC2)c(=O)n4C)cn1 [AZD0156] + C[C@@H]1COCCN1C2=NC(=NC(=C2)C3(CC3)[S@](=N)(=O)C)C4=C5C=CNC5=NC=C4 [AZD6738] (first compound max 1 µM, 7x7, partner max 10 µM) | 0.913 | 0.649 | 0.695 | 0.411 | 0.514 | 0.597 | 0.849 | 0.414 | 0.794 | 0.134 | 0.586 | 0.638 | 0.874 | 0.712 | 0.81 | 0.923 | 0.435 | 0.808 | 0.876 | 0.976
4 | CN(C)CCCOc1ccc(-c2ccc3ncc4c(c3c2)n(C2CCOCC2)c(=O)n4C)cn1 [AZD0156] + O=C(c1cc(Cc2n[nH]c(=O)c3ccccc23)ccc1F)N1CCN(C(=O)C2CC2)CC1 [Olaparib] (first compound max 3 µM, partner max 3 µM) | 0.434 | 0.493 | 0.412 | 0.467 | 0.209 | 0.319 | 0.533 | 0.206 | 0.186 | 0.255 | 0.299 | 0.801 | 0.586 | 0.439 | 0.595 | 0.376 | 0.328 | 0.349 | 0.54 | 0.656
5 | C=CCn1c(=O)c2cnc(Nc3ccc(N4CCN(C)CC4)cc3)nc2n1-c1cccc(C(C)(C)O)n1 [AZD1775] + C1CN(CCC1(C(=O)N[C@@H](CCO)C2=CC=C(C=C2)Cl)N)C3=NC=NC4=C3C=CN4 [Capivasertib] (first compound max 3 µM, partner max 3 µM) | 0.998 | 0.794 | 0.888 | 0.529 | 0.831 | 0.625 | 0.93 | 0.707 | 0.848 | 0.619 | 0.715 | 0.833 | 0.801 | 0.957 | 0.873 | 0.874 | 0.454 | 0.878 | 0.85 | 1
6 | C=CCn1c(=O)c2cnc(Nc3ccc(N4CCN(C)CC4)cc3)nc2n1-c1cccc(C(C)(C)O)n1 [AZD1775] + C[C@@H]1COCCN1C2=NC(=NC(=C2)C3(CC3)[S@](=N)(=O)C)C4=C5C=CNC5=NC=C4 [AZD6738] (first compound max 1 µM, partner max 10 µM) | 1 | 0.823 | 0.771 | 0.369 | 0.782 | 0.737 | 0.901 | 0.399 | 0.863 | 0.221 | 0.682 | 0.714 | 0.995 | 0.898 | 0.938 | 0.937 | 0.536 | 0.77 | 0.941 | 0.999
7 | C=CCn1c(=O)c2cnc(Nc3ccc(N4CCN(C)CC4)cc3)nc2n1-c1cccc(C(C)(C)O)n1 [AZD1775] + O=C(c1cc(Cc2n[nH]c(=O)c3ccccc23)ccc1F)N1CCN(C(=O)C2CC2)CC1 [Olaparib] (first compound max 1 µM, partner max 10 µM) | 0.933 | 0.736 | 0.529 | 0.24 | 0.454 | 0.574 | 0.888 | 0.474 | 0.35 | 0.148 | 0.525 | 0.886 | 0.953 | 0.836 | 0.76 | 0.916 | 0.472 | 0.417 | 0.857 | 0.986
8 | CCN(CCO)CCCOc1ccc2c(Nc3cc(CC(=O)Nc4cccc(F)c4)[nH]n3)ncnc2c1 [AZD2811] + C=CCn1c(=O)c2cnc(Nc3ccc(N4CCN(C)CC4)cc3)nc2n1-c1cccc(C(C)(C)O)n1 [AZD1775] (first compound max 1 µM, partner max 1 µM) | 0.948 | 0.634 | 0.41 | 0.27 | 0.376 | 0.574 | 0.91 | 0.604 | 0.407 | 0.111 | 0.511 | 0.734 | 0.961 | 0.893 | 0.82 | 0.922 | 0.343 | 0.641 | 0.804 | 0.999
9 | CCN(CCO)CCCOc1ccc2c(Nc3cc(CC(=O)Nc4cccc(F)c4)[nH]n3)ncnc2c1 [AZD2811] + C[C@@H]1COCCN1C2=NC(=NC(=C2)C3(CC3)[S@](=N)(=O)C)C4=C5C=CNC5=NC=C4 [AZD6738] (first compound max 1 µM, 7x7, partner max 10 µM) | 0.944 | 0.56 | 0.758 | 0.387 | 0.515 | 0.62 | 0.875 | 0.0804 | 0.756 | 0.144 | 0.515 | 0.685 | 0.706 | 0.827 | 0.815 | 0.893 | 0.407 | 0.819 | 0.884 | 0.981
10 | CCN(CCO)CCCOc1ccc2c(Nc3cc(CC(=O)Nc4cccc(F)c4)[nH]n3)ncnc2c1 [AZD2811] + O=C(c1cc(Cc2n[nH]c(=O)c3ccccc23)ccc1F)N1CCN(C(=O)C2CC2)CC1 [Olaparib] (first compound max 1 µM, 7x7, partner max 10 µM) | 0.576 | 0.248 | 0.626 | 0.387 | 0.291 | 0.202 | 0.738 | 0 | 0.25 | 0.181 | 0.778 | 0.76 | 0.245 | 0.622 | 0.717 | 0.513 | 0.227 | 0.149 | 0.214 | 0.981
11 | CN(CCO)CC[C@H](CSc1ccccc1)Nc1ccc(S(=O)(=O)NC(=O)c2ccc(N3CCC([C@@H](O)c4ccccc4-c4ccc(Cl)cc4)CC3)cc2)cc1S(=O)(=O)C(F)(F)F [AZD4320] + CN(C)CCCOc1ccc(-c2ccc3ncc4c(c3c2)n(C2CCOCC2)c(=O)n4C)cn1 [AZD0156] (first compound max 1 µM, 7x7, partner max 1 µM) | 0.871 | 0.0674 | 0.406 | 0.223 | 0.161 | 0.194 | 0.487 | 0.153 | 0.173 | 0.965 | 0.158 | 0.491 | 0.85 | 0.222 | 0.383 | 0.333 | 0.286 | 0.199 | 0.14 | 0.459
12 | Cc1c2c(nn1C)CSCc1cc(n(C)n1)CSc1cc(c3ccccc3c1)OCCCc1c(C(=O)O)n(C)c3c-2c(Cl)ccc13 [AZD5991] + CN(C)CCCOc1ccc(-c2ccc3ncc4c(c3c2)n(C2CCOCC2)c(=O)n4C)cn1 [AZD0156] (first compound max 1 µM, 7x7, partner max 1 µM) | 0.244 | 0.212 | 0.29 | 0.729 | 0.276 |  | 0.753 | 0.269 | 0.908 | 0.716 | 0.958 | 0.652 | 1 | 0.216 | 0.682 | 0.233 | 0.246 | 0.136 | 0.278 | 0.608
13 | CCc1c2c(nc3ccc(O)cc13)-c1cc3c(c(=O)n1C2)COC(=O)[C@]3(O)CC [SN-38] + O=C(c1cc(Cc2n[nH]c(=O)c3ccccc23)ccc1F)N1CCN(C(=O)C2CC2)CC1 [Olaparib] (first compound max 0.3 µM, 7x7, partner max 10 µM) | 0.942 | 0.902 | 0.981 |  | 0.489 | 0.618 | 0.934 | 0.764 | 0.938 | 0.735 |  | 0.978 |  |  | 0.777 | 0.989 | 0.709 | 0.304 | 0.99 | 1
